Experimental data published in patent US9701667B2, “Coumarin-based fluorogenic agents and uses thereof for specific protein labelling” (UNIVERSITY OF OTTAWA, priority 2014, dated 2017).
“Also recorded” adds a separate entry of the source.

Legend:
[1] = tested on: MBP-dC10α; assay: Fluorescence properties and fluorescence enhancement (FE) before/after labelling of model target protein; type: biochemical
Description: For experiments described herein, maltose-binding protein (MBP) was chosen as a highly-soluble test protein and the dC10α tag was fused to its C-terminus (MBP-dC10α) as described previously (Guy, J. et al., Mol. Biosyst. 2010, 6, 976-987).
Emission spectra and fluorescence intensity measurements were recorded at 37° C. with a Synergy H4 Hybrid Multi-Mode Microplate Reader with excitation and emission monochromators set at 9 nm bandpass. The mixture of 100 μM solution of fluorogen (YCx) and 100 μM MBP-dC10 in 50 mM HEPES buffer (pH 7.4) with 5% DMSO was incubated at 37° C. in the dark for 12 hours, after which the fluorescence emission spectrum of a dilution (25 μM final) in 50 mM HEPES buffer with 5% DMSO was recorded. The emission spectra of the corresponding labelling reagent in same solution without MBP-dC10α were also recorded. The ratio of fluorescence intensity at maximum emission gave the fluorescence enhancement (FE) ratio.

[2] = tested on: MBP-dC10α; assay: Time-dependent fluorescence increase on reaction with test protein; type: biochemical; details: MBP-dC10 versus GSH
Description: (§1) Reactivity was tested through the time-dependent fluorescence increase at 37° C. using Synergy H4 Hybrid Multi-Mode Microplate Reader with excitation and emission monochromators set to 9 nm bandpass. All reactions were prepared in 50 mM HEPES buffer (pH 7.4) with 5% DMSO. Solutions of MBP-dC10α or GSH were prepared in 96-well plates and labelling reagent (YCx) in DMSO was added immediately before recording. The final concentration of labelling reagent was 25 μM, the final concentration of MBP-dC10α was 25 μM and the final concentration of GSH was 50 μM or 1 mM in 50 mM HEPES buffer (pH 7.4) with 5% DMSO. Samples were excited at 440 nm and fluorescence intensity was followed at 485 nm as a function of time.

[3] = Time-dependent fluorescence increase on reaction with GSH; details: 25 μM fluorogen, 1 mM GSH
Description: as §1

[4] = tested on: HEK293T cells; assay: MTT cytotoxicity assay; type: cell-based, human; details: 20 h incubation
Description: 3-(4,5-Dimethylthiazol-2-yl)-2,5-diphenyl tetrazolium bromide (MTT) is a yellow tetrazolium salt and can be reduced to formazan crystals, which are insoluble in aqueous solutions, by active mitochondria in living cells. The resulting intracellular purple formazan can be dissolved in Triton X100, and therefore quantified by measuring absorption of the solution.
Cells were seeded in a 96-well plate and incubated with 100 μL of culture medium with different amounts of the fluorogen YCx for 16 h. No fluorogen was added to the positive control and no cells were plated in the negative control. Portions of 25 μL of MTT solution (5 mg in 1 mL of Hanks' balanced salt solution) were added to the wells and the cells were further incubated at 37° C. for 4 h. Solubilization solutions (100 μL) were then added and incubated in 96-well plates at room temperature in the dark overnight. The absorption of each well was measured using a plate reader at a wavelength of 570 nm with 690 nm as a reference. Cell viability was calculated according to the following equation: Cell viability=(Awith fluorogen−Anegative control)/(Apositive control−Anegative control).

[5] = target: T1, dC10α-actin (Homo sapiens, UniProt P60709); assay: No-wash intracellular labelling of dC10α-actin in HEK 293T cells; type: cell-based; details: 10 μM YC20, 45 min
T1 construct: expressed in transfected cells; host or cells: HEK 293T
Description: (§2) The no-wash fluorogenic labelling reagent YC20 was used to label cellular proteins localized in different parts of living HEK 293T cells. Histone-H2B, localized in the nuclei, and actin, localized as filaments in the cytosol, were chosen as the test proteins. […] HEK293T cells were transfected to express histone H2B-dC10α or dC10α-actin and then labeled with YC20 for 45 min and directly imaged by fluorescent microscopy without any washing steps (FIG. 13; see, also, Chen, Y. et al., Angew. Chem. Int. Ed. Engl., 2014, 53, 13785-13788, the entire contents of which are hereby incorporated by reference).
(§3) Transfection and labelling were performed as follows: HEK 293T cells were plated into 60-mm dishes and grown in MEM supplemented with 10% FBS, 100 units/mL of penicillin and 100 μg/mL of streptomycin for 16 h before transfection. Cells were transiently transfected with plasmid DNA encoding for dC10α-actin or histone H2B-dC10α or with pcDNA3.1 (mock) using lipofectamine 2000 following manufacturer's instructions. Twenty-four or forty-eight hours after transfection, the cells were incubated with 10 μM YC20 (in Opti-MEM with 0.2% DMSO) for 45 min at 37° C. Cells were observed and imaged on a Nikon confocal microscope with a 25× objective. Images were taken and analyzed with NIS-Elements software.

[6] = tested on: histone H2B-dC10α; assay: No-wash intracellular labelling of histone H2B-dC10α in HEK 293T cells; type: cell-based, human; details: 10 μM YC20, 45 min
Description: as §2, §3

[7] = tested on: histone H2B-dC10α; assay: Intracellular labelling of histone H2B-dC10α in HeLa cells; type: cell-based, human; details: 10 μM YC20, 10 minutes
Description: HeLa cells were transfected with plasmid DNA encoding histone H2B-dC10α as described below and labelled with 10 μM YC20 for 10 minutes.
Transfection and labelling were performed as follows: HeLa cells were propagated for 2-3 weeks until the cells were stable and healthy for the transfection and labelling experiments. Cells were plated in 35 mm culture dishes (approx. 1.3×10^5 cells/plate in 2 mL of MEM or DMEM media) and incubated at 37° C. (5% CO2) for 12-16 h, after which they were transfected with the plasmid DNA encoding for the expression of histone H2B C-terminally tagged with dC10α, using 3-fold lipofectamine […] (H2B-dC10α and 6 μg of lipofectamine). For the transfections the media was changed from MEM/DMEM to OPTI-MEM and the transfection time was 45 min. The media was then changed back to MEM/DMEM and the cells were allowed to express protein for 48 h (37° C. and 5% CO2), after which the cells were treated with the corresponding fluorogen. For FlARe labelling, cells were treated with 10 μM of YC20 in 2 mL OPTI-MEM (containing 0.02% F127 and 0.2% DMSO) and incubated at 37° C. and 5% CO2 for 10 minutes.

## CCN(CC)c1ccc2cc(C(=O)Nc3cc(N4C(=O)C=C(OC)C4=O)cc(N4C(=O)C=C(OC)C4=O)c3)c(=O)oc2c1 [YC20, N-(3,5-bis(3-methoxy-2,5-dioxo-2,5-dihydro-1H-pyrrol-1-yl)phenyl)-7-(diethylamino)-2-oxo-2H-chromene-3-carboxamide]
[1]; after labelling with MBP-dC10, λex = 440 nm
  fluorescence intensity change (fluorescence enhancement): 29 fold
[1]; after reaction with MBP-dC10α
  fluorescence after the labelling reaction: strong fluorescence
[1]; fluorogen without target protein
  background (intrinsic) fluorescence before labelling / quenching: negligible background fluorescence
[2]
  selectivity of labelling target protein over GSH: most selective labelling reagent
[3]
  reaction with high concentration (large excess) of GSH: extremely slow; also recorded: did not give any fluorescence signal
[4]
  cytotoxicity (cell viability, MTT): neither showed any cytotoxicity up to 100 μM
[5]; HEK 293T mock cells
  fluorescence in pcDNA transfected (mock) cells: negligible fluorescence
[5]; HEK 293T
  labelling of dC10α-actin (cyan channel): filament structures in the cytosol were clearly visible
[6]
  labelling of histone H2B-dC10α (cyan channel): only the nuclei were fluorescently labeled
[7]
  labelling of histone H2B-dC10α (cyan channel): nuclei were strongly fluorescently labeled
